The values below come from ChEMBL document CHEMBL5291721, “A preclinical secondary pharmacology resource illuminates target-adverse drug reaction associations of marketed drugs” (Nat Commun, 2023).

The AC50 is the concentration giving half of the maximal activity seen.

Test [1] concerns the target Beta-1 adrenergic receptor (Homo sapiens, UniProt P08588). In kind it is functional.
The target of test [2] is T1, 5-hydroxytryptamine receptor 1A (Homo sapiens, UniProt P08908).
T1 sequence (P08908 whole entry): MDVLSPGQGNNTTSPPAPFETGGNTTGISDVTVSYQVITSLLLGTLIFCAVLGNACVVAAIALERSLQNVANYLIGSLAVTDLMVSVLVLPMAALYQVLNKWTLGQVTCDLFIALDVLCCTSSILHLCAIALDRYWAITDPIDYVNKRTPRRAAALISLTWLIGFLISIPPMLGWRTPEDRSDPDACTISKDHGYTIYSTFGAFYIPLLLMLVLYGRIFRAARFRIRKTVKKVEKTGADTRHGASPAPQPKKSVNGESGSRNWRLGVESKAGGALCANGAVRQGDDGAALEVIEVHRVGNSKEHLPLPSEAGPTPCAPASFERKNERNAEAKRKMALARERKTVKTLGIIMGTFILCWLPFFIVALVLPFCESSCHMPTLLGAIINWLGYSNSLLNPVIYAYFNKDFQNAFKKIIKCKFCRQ
It counts as functional, cell-based.

Test [3] has as its target Glutamate receptor ionotropic, NMDA 1 (Rattus norvegicus, UniProt P35439).
For test [4], the target named is 5-hydroxytryptamine receptor 2B (Homo sapiens, UniProt P41595). In kind it is functional, cell-based.
5-hydroxytryptamine receptor 2B, sequence (P41595 whole entry): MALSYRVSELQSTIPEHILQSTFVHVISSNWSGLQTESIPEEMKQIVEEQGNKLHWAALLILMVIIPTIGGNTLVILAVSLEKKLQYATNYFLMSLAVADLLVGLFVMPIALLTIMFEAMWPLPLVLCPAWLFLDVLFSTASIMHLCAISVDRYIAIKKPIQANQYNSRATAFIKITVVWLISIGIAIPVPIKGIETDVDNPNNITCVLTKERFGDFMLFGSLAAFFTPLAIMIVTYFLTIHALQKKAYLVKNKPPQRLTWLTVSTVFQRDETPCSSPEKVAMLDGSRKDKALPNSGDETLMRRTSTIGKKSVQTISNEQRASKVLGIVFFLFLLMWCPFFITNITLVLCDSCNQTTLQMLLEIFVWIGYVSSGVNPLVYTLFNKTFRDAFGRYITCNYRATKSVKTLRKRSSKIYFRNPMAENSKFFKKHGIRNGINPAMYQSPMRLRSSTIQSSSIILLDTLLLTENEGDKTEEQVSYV
Test [5] addresses T2, 5-hydroxytryptamine receptor 2C (Homo sapiens, UniProt P28335).
T2 sequence (P28335 whole entry): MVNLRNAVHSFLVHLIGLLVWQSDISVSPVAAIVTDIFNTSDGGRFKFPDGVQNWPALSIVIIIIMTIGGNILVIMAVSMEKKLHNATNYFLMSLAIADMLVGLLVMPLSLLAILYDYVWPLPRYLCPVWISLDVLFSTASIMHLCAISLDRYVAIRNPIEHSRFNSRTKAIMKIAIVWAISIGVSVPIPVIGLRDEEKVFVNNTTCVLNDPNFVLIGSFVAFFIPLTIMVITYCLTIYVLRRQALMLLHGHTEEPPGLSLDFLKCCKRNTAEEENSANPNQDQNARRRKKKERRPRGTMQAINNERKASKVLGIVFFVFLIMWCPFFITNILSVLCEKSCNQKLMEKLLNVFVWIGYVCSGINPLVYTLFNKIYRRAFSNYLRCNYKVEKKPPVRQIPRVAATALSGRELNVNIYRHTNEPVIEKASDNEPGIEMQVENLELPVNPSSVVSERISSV

The target in test [6] is Sodium-dependent noradrenaline transporter (Homo sapiens, UniProt P23975).
Sodium-dependent noradrenaline transporter, sequence (P23975 whole entry): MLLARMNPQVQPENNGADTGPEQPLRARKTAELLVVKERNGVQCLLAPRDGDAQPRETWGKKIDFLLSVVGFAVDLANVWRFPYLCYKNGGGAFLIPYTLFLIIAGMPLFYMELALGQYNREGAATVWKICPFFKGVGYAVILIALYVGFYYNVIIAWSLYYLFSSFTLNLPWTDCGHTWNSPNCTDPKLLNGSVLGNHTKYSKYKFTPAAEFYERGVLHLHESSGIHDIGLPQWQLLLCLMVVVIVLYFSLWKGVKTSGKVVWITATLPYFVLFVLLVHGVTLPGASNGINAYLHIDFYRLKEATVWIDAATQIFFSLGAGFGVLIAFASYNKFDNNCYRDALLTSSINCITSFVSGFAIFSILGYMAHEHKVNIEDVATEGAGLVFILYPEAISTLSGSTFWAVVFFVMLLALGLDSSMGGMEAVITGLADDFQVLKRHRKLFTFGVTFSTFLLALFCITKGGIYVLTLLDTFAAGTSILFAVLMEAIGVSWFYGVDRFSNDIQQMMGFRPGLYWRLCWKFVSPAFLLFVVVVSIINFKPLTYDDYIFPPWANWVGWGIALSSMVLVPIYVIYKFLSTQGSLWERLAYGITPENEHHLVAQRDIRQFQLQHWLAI
Another test concerns the target T3, Estrogen receptor (Homo sapiens, UniProt P03372).
T3 sequence (P03372 whole entry): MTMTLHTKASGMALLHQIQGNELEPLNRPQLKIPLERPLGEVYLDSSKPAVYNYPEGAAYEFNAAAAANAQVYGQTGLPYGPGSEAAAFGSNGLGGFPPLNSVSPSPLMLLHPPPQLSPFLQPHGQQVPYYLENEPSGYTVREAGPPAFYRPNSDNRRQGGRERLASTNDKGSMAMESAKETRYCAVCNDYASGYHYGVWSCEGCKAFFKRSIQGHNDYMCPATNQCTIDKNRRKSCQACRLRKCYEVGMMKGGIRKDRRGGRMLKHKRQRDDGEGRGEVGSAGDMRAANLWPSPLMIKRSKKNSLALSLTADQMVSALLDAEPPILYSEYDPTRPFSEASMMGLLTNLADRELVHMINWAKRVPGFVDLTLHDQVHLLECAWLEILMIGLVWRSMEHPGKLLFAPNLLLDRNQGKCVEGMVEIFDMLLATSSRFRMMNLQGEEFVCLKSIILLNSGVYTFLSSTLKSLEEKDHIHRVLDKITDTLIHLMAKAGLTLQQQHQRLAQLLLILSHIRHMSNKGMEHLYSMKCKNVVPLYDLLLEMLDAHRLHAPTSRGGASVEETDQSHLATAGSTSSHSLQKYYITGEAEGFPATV

Test [7] addresses T4, Muscarinic acetylcholine receptor M1 (Homo sapiens, UniProt P11229).
T4 sequence (P11229 whole entry): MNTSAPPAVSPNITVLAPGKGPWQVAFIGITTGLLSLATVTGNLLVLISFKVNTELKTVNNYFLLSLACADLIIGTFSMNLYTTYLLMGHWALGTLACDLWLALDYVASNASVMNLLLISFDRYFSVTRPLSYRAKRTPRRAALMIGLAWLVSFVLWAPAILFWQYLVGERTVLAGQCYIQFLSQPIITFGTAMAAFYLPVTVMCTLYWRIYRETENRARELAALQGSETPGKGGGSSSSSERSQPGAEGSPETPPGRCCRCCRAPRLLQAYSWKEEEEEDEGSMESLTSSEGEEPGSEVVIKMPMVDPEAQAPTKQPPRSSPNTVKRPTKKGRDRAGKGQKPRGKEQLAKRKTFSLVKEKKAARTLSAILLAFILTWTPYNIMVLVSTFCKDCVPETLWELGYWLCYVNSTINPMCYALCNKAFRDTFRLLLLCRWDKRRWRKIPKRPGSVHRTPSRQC
In kind it is functional.

A further test deals with Histamine H2 receptor (Homo sapiens, UniProt P25021). It counts as functional, cell-based.
Histamine H2 receptor, sequence (P25021 whole entry): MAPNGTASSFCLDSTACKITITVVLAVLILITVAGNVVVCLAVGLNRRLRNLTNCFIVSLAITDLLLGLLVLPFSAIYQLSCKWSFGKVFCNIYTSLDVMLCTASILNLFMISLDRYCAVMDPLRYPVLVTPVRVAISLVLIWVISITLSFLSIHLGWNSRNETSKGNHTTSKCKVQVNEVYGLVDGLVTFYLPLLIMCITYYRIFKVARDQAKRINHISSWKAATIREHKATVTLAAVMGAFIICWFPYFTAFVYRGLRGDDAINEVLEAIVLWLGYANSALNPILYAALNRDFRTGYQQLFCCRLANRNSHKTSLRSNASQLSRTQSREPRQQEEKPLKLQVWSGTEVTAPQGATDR
For test [8], the target named is T5, Prostaglandin G/H synthase 1 (Rattus norvegicus, UniProt Q63921).
T5 sequence (Q63921 whole entry): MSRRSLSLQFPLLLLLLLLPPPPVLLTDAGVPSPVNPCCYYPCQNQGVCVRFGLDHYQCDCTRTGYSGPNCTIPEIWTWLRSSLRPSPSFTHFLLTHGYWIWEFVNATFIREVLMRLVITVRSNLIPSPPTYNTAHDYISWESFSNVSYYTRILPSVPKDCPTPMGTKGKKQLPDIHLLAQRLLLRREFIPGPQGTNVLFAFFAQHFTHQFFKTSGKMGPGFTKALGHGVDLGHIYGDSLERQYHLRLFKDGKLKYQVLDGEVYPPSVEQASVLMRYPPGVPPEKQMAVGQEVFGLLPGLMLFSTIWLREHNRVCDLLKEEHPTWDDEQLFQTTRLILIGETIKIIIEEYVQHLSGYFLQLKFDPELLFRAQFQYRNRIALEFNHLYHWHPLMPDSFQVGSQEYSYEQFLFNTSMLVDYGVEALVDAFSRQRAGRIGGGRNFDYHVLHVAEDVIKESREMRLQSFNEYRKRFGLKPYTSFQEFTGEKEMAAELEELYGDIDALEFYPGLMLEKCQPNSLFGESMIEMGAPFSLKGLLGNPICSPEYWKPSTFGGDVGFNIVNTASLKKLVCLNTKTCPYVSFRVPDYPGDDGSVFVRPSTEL
In kind it is functional.
Note: assay procedure not described here.

Beta-1 adrenergic receptor, sequence (P08588 whole entry): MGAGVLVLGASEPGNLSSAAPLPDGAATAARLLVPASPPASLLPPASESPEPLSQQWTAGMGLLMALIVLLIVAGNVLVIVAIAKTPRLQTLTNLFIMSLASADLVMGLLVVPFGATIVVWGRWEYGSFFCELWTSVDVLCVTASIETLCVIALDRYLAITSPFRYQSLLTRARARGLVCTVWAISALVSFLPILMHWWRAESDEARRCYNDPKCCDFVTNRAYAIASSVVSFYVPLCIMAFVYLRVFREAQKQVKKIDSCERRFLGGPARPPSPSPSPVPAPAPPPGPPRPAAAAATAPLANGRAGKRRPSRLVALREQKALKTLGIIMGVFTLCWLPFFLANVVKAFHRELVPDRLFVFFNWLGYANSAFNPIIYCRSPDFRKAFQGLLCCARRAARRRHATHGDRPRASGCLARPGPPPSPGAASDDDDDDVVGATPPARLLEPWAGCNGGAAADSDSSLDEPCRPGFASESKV

For the molecule `CCCC(C)C1(CC)C(=O)NC(=O)NC1=O` (stereo not given) [PENTOBARBITAL], the AC50 in test [1] was more than 10 µM; in test [2], more than 10 µM; in test [3], more than 10 µM; in test [4] it was more than 10 µM; in [5] it was more than 30 µM; in test [6], more than 10 µM. Besides, the AC50 is more than 10 µM at Estrogen receptor, more than 30 µM in test [7], more than 30 µM on Histamine H2 receptor and more than 10 µM in test [8].

Consider `O=C(O)C[C@H](O)C[C@H](O)/C=C/c1c(C2CC2)nc2ccccc2c1-c1ccc(F)cc1` [PITAVASTATIN], for which the AC50 in test [1] was more than 30 µM; in [2] it was more than 10 µM; in test [3] it was more than 10 µM; in test [4], more than 10 µM; in test [5], more than 30 µM; in test [6], more than 30 µM. Besides, the AC50 at Estrogen receptor was more than 10 µM; in test [7], more than 30 µM; on Histamine H2 receptor it was more than 10 µM; in test [8], more than 30 µM.

`Clc1ccc(CCCOCCCN2CCCCC2)cc1` [PITOLISANT]: the AC50 in test [1] was more than 30 µM; in [2], more than 30 µM; in [3], more than 30 µM; in test [4], more than 30 µM; in [5], more than 30 µM; in test [6] it was 13 µM. The AC50 (at Estrogen receptor; in [7]; on Histamine H2 receptor; in [8]) was more than 30 µM in each case.

For `COC(=O)[C@H]1[C@H]2C[C@@H]3c4[nH]c5cc(OC)ccc5c4CCN3C[C@H]2C[C@@H](OC(=O)/C=C/c2cc(OC)c(OC)c(OC)c2)[C@@H]1OC` [RESCINNAMINE], the AC50 was more than 10 µM in test [1]; more than 10 µM in [2]; more than 10 µM in test [3]; more than 10 µM in test [4]; more than 30 µM in [5]; more than 30 µM in test [6]. Moreover, the AC50 at Estrogen receptor is more than 10 µM; in test [7] it was more than 10 µM; on Histamine H2 receptor it was more than 30 µM; in [8] it was 11.6 µM.

In the case of `Cc1ccc(-n2nccn2)c(C(=O)N2CCN(c3nc4cc(Cl)ccc4o3)CC[C@H]2C)c1` [SUVOREXANT], the concentration at half-maximal activity (AC50) in [1], in test [2], in [3], in test [4], in [5] and in test [6] was more than 30 µM each time. The AC50 (on Estrogen receptor; in [7]; on Histamine H2 receptor; in test [8]) was more than 30 µM in each case.

For `C=CCC1(C(C)CC)C(=O)NC(=O)NC1=O` (stereo not given) [TALBUTAL], the AC50 is more than 10 µM in [1]; more than 10 µM in test [2]; more than 10 µM in [3]; more than 10 µM in [4]; more than 30 µM in test [5]; more than 10 µM in test [6]. The concentration at half-maximal activity (AC50) (at Estrogen receptor; in test [7]; on Histamine H2 receptor; in test [8]) was more than 10 µM each time.

As for `CN1C(=O)C(O)N=C(c2ccccc2)c2cc(Cl)ccc21` (stereo not given) [TEMAZEPAM], the AC50 in [1] is more than 10 µM; in [2], more than 10 µM; in test [3], more than 10 µM; in test [4], more than 10 µM; in test [5], more than 30 µM; in test [6] it was more than 10 µM. For the same molecule, the AC50 on Estrogen receptor was more than 30 µM; in test [7], more than 10 µM; on Histamine H2 receptor, more than 10 µM; in test [8] it was more than 30 µM.

For the molecule `COc1cc2c(N)nc(N3CCN(C(=O)OCC(C)(C)O)CC3)nc2c(OC)c1OC` [TRIMAZOSIN], the AC50 in test [1] was more than 30 µM; in test [2], 22 µM; in [3] it was more than 30 µM; in test [4], more than 30 µM; in test [5] it was more than 30 µM; in test [6], more than 30 µM. Further, the AC50 (at Estrogen receptor; in test [7]; on Histamine H2 receptor; in test [8]) was more than 30 µM each time.

On to `C=CCN1CCCC1CNC(=O)c1cc(S(N)(=O)=O)cc(OC)c1OC` (stereo not given) [VERALIPRIDE], for which the AC50 in test [1] is more than 30 µM; in test [2] it was 3.6 µM; in test [3], more than 30 µM; in [4] it was more than 30 µM; in test [5], more than 30 µM; in test [6], more than 30 µM. Moreover, the concentration at half-maximal activity (AC50) (on Estrogen receptor; in [7]; at Histamine H2 receptor; in test [8]) was more than 30 µM in each case.

Consider `C[C@H](CSC(=O)c1ccccc1)C(=O)N1C[C@@H](Sc2ccccc2)C[C@H]1C(=O)O` [ZOFENOPRIL], for which the AC50 in test [1] was more than 10 µM; in [2] it was more than 10 µM; in test [3], more than 10 µM; in test [4] it was more than 10 µM; in test [5], more than 30 µM; in test [6] it was more than 10 µM. Further, the AC50 (at Estrogen receptor; in [7]; on Histamine H2 receptor; in [8]) was more than 10 µM throughout.
